Assay results published in US20260034094A1, “COMPOSITIONS AND METHODS FOR INDUCING FERROPTOSIS” (Kojin Therapeutics, Inc., priority 2022, published 2026).

Experiments:
RKN cells = test: RKN cell profiling assay (cell viability, CellTiter-Glo); type: cell-based; conditions: cell viability, read-out: Cell Killing EC50
Method in brief: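 Viability read by CellTiter-Glo luminescence after 96 h compound exposure (0.5% DMSO final) of cells plated at 1,000/well in 10% FBS F-12 and allowed 24 h attachment. Four-parameter fits gave EC50; rescue arms used ferrostatin-1, 1.5 μM, present from seeding.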

human recombinant GCL = human recombinant GCL (Homo sapiens (Human), UniProt P48506); test: GCL enzyme profiling assay (ADP-Glo luminescence); type: biochemical; conditions: human recombinant GCL, ADP-Glo; read-out: GCL IC50
Method in brief: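 IC50 fitted by four-parameter logistic to luminescent ADP formation (ADP-Glo). Reaction at room temperature in HEPES pH 7.5 with 30 mM MgCl2, 0.2% F-127, 1% DMSO; 5 nM GCL and 0.6 mM ATP preincubated 1 h before adding 1 mM glutamate plus 1.2 mM α-aminobutyrate for 2 h.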

Sequence of human recombinant GCL (P48506 whole entry): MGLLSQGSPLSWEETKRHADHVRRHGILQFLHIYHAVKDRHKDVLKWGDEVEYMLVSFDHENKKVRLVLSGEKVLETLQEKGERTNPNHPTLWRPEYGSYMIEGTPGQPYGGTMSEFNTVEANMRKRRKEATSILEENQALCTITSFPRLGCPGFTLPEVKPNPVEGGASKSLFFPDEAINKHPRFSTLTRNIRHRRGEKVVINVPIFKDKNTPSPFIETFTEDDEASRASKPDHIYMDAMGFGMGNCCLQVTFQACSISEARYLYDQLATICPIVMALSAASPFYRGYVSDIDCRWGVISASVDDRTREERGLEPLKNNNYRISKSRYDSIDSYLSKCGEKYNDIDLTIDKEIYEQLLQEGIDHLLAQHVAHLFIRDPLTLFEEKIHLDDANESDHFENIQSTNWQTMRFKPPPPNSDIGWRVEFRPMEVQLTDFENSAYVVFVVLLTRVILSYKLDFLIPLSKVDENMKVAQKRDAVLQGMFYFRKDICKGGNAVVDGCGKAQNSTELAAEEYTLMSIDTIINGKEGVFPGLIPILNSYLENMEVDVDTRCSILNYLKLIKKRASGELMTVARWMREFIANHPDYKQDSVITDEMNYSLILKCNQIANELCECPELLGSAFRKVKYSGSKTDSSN

Row | Structure (SMILES) | IC50 (human recombinant GCL) [µM] | EC50 (RKN cells) [µM]
1 | N=S(=O)(CC[C@H](N)C(=O)O)CCC(O)(c1ccc(Oc2ccc(Cl)cc2Cl)cn1)C(F)(F)F (stereo partly drawn) [Compound 380] | ≤ 20 | < 1000
2 | N=S(=O)(CCC(C1CCCCC1)C(F)(F)F)CC[C@H](N)C(=O)O (stereo partly drawn) [Compound 381, (2S)-2-amino-4-(3-cyclohexyl-4,4,4-trifluorobutylsulfonimidoyl)butanoic acid] | ≤ 20 | ≥ 1000
3 | N=S(=O)(CCC(C1CCCC1)C(F)(F)F)CC[C@H](N)C(=O)O (stereo partly drawn) [Compound 382] | ≤ 20 | ≥ 1000
4 | N=S(=O)(CCC(C(F)(F)F)C12CC(C1)C2)CC[C@H](N)C(=O)O (stereo partly drawn) [Compound 384] | ≤ 20 | ≥ 1000
5 | N=S(=O)(CC[C@H](N)C(=O)O)CCC1(c2cccc(F)c2)CCC1 (stereo partly drawn) [Compound 385, (2S)-2-amino-4-[2-[1-(3-fluorophenyl)cyclobutyl]ethylsulfonimidoyl]butanoic acid] | 20 to 2000 | < 1000
6 | N=S(=O)(CC[C@H](N)C(=O)O)CCC1(c2ccccn2)CCC1 (stereo partly drawn) [Compound 387, (2S)-2-amino-4-(2-(1-(pyridin-2-yl)cyclobutyl)ethylsulfonimidoyl)butanoic acid] | 20 to 2000 | < 1000
7 | N=S(=O)(CCC(c1ccc(-c2ccccc2)cc1O)C(F)(F)F)CC[C@H](N)C(=O)O (stereo partly drawn) [Compound 391, (2S)-2-amino-4-(4,4,4-trifluoro-3-(3-hydroxy-[1,1′-biphenyl]-4-yl)butylsulfonimidoyl)butanoic acid] | ≤ 20 | < 1000
8 | N=S(=O)(CC[C@H](N)C(=O)O)CCC1(c2ccc3[nH]ncc3c2)CCC1 (stereo partly drawn) [Compound 394] | ≤ 20 | ≥ 1000
9 | COc1ccc(-c2ccc(C3(CCS(=N)(=O)CC[C@H](N)C(=O)O)CCC3)cc2)c(Cl)c1 (stereo partly drawn) [Compound 400] | ≤ 20 | < 1000
10 | N=S(=O)(CC[C@H](N)C(=O)O)CCC1(c2ccc(-c3ccc(Cl)cc3Cl)cc2)CCC1 (stereo partly drawn) [Compound 402] | ≤ 20 | < 1000
11 | N=S(=O)(CC[C@H](N)C(=O)O)CCC1(n2nccn2)CCC1 (stereo partly drawn) [Compound 405, (2S)-4-(2-(1-(2H-1,2,3-triazol-2-yl)cyclobutyl)ethylsulfonimidoyl)-2-aminobutanoic acid] | 20 to 2000 | < 1000
12 | N=S(=O)(CCC(n1ncc(-c2ccccn2)n1)C(F)(F)F)CC[C@H](N)C(=O)O (stereo partly drawn) [Compound 407] | ≤ 20 | ≥ 1000
13 | N=S(=O)(CCC(n1nc2ccccc2n1)C(F)(F)F)CC[C@H](N)C(=O)O (stereo partly drawn) [Compound 410] | ≤ 20 | ≥ 1000
14 | N=S(=O)(CCC(n1cccn1)C(F)(F)F)CC[C@H](N)C(=O)O (stereo partly drawn) [Compound 411] | 20 to 2000 | < 1000
15 | N=S(=O)(CCC(n1ccc(C2CC2)n1)C(F)(F)F)CC[C@H](N)C(=O)O (stereo partly drawn) [Compound 413] | 20 to 2000 | ≥ 1000
16 | N=S(=O)(CCC(n1ccc(-c2cccnc2)n1)C(F)(F)F)CC[C@H](N)C(=O)O (stereo partly drawn) [Compound 414] | 20 to 2000 | ≥ 1000

Row | Structure (SMILES) | IC50 (human recombinant GCL) [µM] | EC50 (RKN cells) [µM]
17 | N=S(=O)(CCC(n1ccc(-c2ccccc2)n1)C(F)(F)F)CC[C@H](N)C(=O)O (stereo partly drawn) [Compound 416] | ≤ 20 | ≥ 1000
18 | Cc1cnn(C2(CCS(=N)(=O)CC[C@H](N)C(=O)O)CCC2)n1 (stereo partly drawn) [Compound 417] | 20 to 2000 | < 1000
19 | N=S(=O)(CC[C@H](N)C(=O)O)CCC1(n2ncc(-c3ccccn3)n2)CCC1 (stereo partly drawn) [Compound 418] | 20 to 2000 | ≥ 1000
20 | N=S(=O)(CC[C@H](N)C(=O)O)CCC1(n2ncc(-c3cccnc3)n2)CCC1 (stereo partly drawn) [Compound 419] | 20 to 2000 | ≥ 1000
21 | N=S(=O)(CC[C@H](N)C(=O)O)CCC1(n2ncc(-c3ccccc3)n2)CCC1 (stereo partly drawn) [Compound 420] | ≤ 20 | ≥ 1000
22 | N=S(=O)(CC[C@H](N)C(=O)O)CCC(O)(c1ccc(-c2ccccc2)cc1)C(F)(F)F (stereo partly drawn) [Compound 424, (2S)-4-(3-([1,1′-biphenyl]-4-yl)-4,4,4-trifluoro-3-hydroxybutylsulfonimidoyl)-2-aminobutanoic acid] | ≤ 20 | < 1000
23 | N=S(=O)(CC[C@H](N)C(=O)O)CCC(O)(c1ccc(-c2ccc3ccc(=O)oc3c2)cc1)C(F)(F)F (stereo partly drawn) [Compound 425, (2S)-2-amino-4-(4,4,4-trifluoro-3-hydroxy-3-(4-(2-oxo-2H-chromen-7-yl)phenyl)butylsulfonimidoyl)butanoic acid] | ≤ 20 | ≥ 1000
24 | N=S(=O)(CC[C@H](N)C(=O)O)CCC(O)(c1ccc(-n2cccn2)cc1)C(F)(F)F (stereo partly drawn) [Compound 426, (2S)-4-(3-(4-(1H-pyrazol-1-yl)phenyl)-4,4,4-trifluoro-3-hydroxybutylsulfonimidoyl)-2-aminobutanoic acid] | 20 to 2000 | ≥ 1000
25 | N[C@@H](CCS(=O)(=O)CCC(O)(c1ccc(-c2ccc(Cl)cc2Cl)cc1)C(F)(F)F)C(=O)O (stereo partly drawn) [Compound 427, (2S)-2-amino-4-((3-(2′, 4′-dichloro-[1, 1′-biphenyl]-4-yl)-4,4,4-trifluoro-3-hydroxybutyl)sulfonyl) butanoic acid] | 20 to 2000 | ≥ 1000
26 | N=S(=O)(CC[C@H](N)C(=O)O)CCC(O)(c1ccc(-c2ccc(Cl)cc2Cl)cc1)C(F)(F)F (stereo partly drawn) [Compound 428] | ≤ 20 | < 1000
27 | Cc1ccc(-c2ccc(C(O)(CCS(=N)(=O)CC[C@H](N)C(=O)O)C(F)(F)F)cc2)c(C)c1 (stereo partly drawn) [Compound 438] | ≤ 20 | < 1000
28 | CS(=O)(=O)c1ccc(-c2ccc(C(O)(CCS(=N)(=O)CC[C@H](N)C(=O)O)C(F)(F)F)cc2)c(Cl)c1 (stereo partly drawn) [Compound 442] | ≤ 20 | ≥ 1000
29 | CC(C)(C)c1nnc(-c2ccc(C(O)(CCS(=N)(=O)CC[C@H](N)C(=O)O)C(F)(F)F)cc2)o1 (stereo partly drawn) [Compound 445] | 20 to 2000 | ≥ 1000
30 | Cc1noc(C)c1-c1ccc(C(O)(CCS(=N)(=O)CC[C@H](N)C(=O)O)C(F)(F)F)cc1 (stereo partly drawn) [Compound 448] | ≤ 20 | ≥ 1000
31 | N=S(=O)(CC[C@H](N)C(=O)O)CCC(O)(c1ccc(-c2ccc(Cl)cc2Cl)cc1OC(F)(F)F)C(F)(F)F (stereo partly drawn) [Compound 449] | ≤ 20 | ≥ 1000

Further lines, with some results ahead:

Row | IC50 (human recombinant GCL) [µM] | Structure (SMILES) | EC50 (RKN cells) [µM]
32 | ≤ 20 | N=S(=O)(CCC(C1CCC1)C(F)(F)F)CC[C@H](N)C(=O)O (stereo partly drawn) [Compound 383] | ≥ 1000
33 | ≤ 20 | N=S(=O)(CCC(c1ccc2[nH]ncc2c1)C(F)(F)F)CC[C@H](N)C(=O)O (stereo partly drawn) [Compound 386, (2S)-2-amino-4-(4,4,4-trifluoro-3-(1H-indazol-5-yl)butylsulfonimidoyl)butanoic acid] | < 1000
34 | 20 to 2000 | N=S(=O)(CC[C@H](N)C(=O)O)CCC1(c2ccc3[nH]nnc3c2)CCC1 (stereo partly drawn) [Compound 395] | < 1000
35 | 20 to 2000 | N=S(=O)(CC[C@H](N)C(=O)O)CCC1(c2ccc3[nH]cnc3c2)CCC1 (stereo partly drawn) [Compound 396] | ≥ 1000
36 | ≤ 20 | COc1ccccc1C(CCS(=N)(=O)CC[C@H](N)C(=O)O)C(F)(F)F (stereo partly drawn) [Compound 398] | < 1000
37 | ≤ 20 | N=S(=O)(CC[C@H](N)C(=O)O)CCC1(c2ccc(-c3ccc(O)cc3Cl)cc2)CCC1 (stereo partly drawn) [Compound 401] | ≥ 1000
38 | 20 to 2000 | N=S(=O)(CCC(n1nccn1)C(F)(F)F)CC[C@H](N)C(=O)O (stereo partly drawn) [Compound 404, (2S)-2-amino-4-[[4,4,4-trifluoro-3-(triazol-2-yl)butyl]sulfonimidoyl]butanoic acid] | < 1000
39 | ≤ 20 | Cc1cnn(C(CCS(=N)(=O)CC[C@H](N)C(=O)O)C(F)(F)F)n1 (stereo partly drawn) [Compound 406] | < 1000
40 | ≤ 20 | N=S(=O)(CCC(n1ncc(-c2cccnc2)n1)C(F)(F)F)CC[C@H](N)C(=O)O (stereo partly drawn) [Compound 408] | ≥ 1000
41 | ≤ 20 | N=S(=O)(CCC(n1ncc(-c2ccccc2)n1)C(F)(F)F)CC[C@H](N)C(=O)O (stereo partly drawn) [Compound 409] | < 1000
42 | 20 to 2000 | Cc1ccn(C(CCS(=N)(=O)CC[C@H](N)C(=O)O)C(F)(F)F)n1 (stereo partly drawn) [Compound 412] | ≥ 1000
43 | 20 to 2000 | N=S(=O)(CCC(n1ccc(-c2ccccn2)n1)C(F)(F)F)CC[C@H](N)C(=O)O (stereo partly drawn) [Compound 415] | ≥ 1000
44 | ≤ 20 | N=S(=O)(CC[C@H](N)C(=O)O)CCC1(n2nc3ccccc3n2)CCC1 (stereo partly drawn) [Compound 421] | ≥ 1000
45 | ≤ 20 | N=S(=O)(CC[C@H](N)C(=O)O)CCC(O)(c1ccc(-c2ccccc2O)cc1)C(F)(F)F (stereo partly drawn) [Compound 434] | < 1000
46 | ≤ 20 | N=S(=O)(CC[C@H](N)C(=O)O)CCC(O)(c1ccc(-c2ccc(C(F)(F)F)cc2C(F)(F)F)cc1)C(F)(F)F (stereo partly drawn) [Compound 439] | < 1000
47 | ≤ 20 | COc1cc(OC(F)(F)F)ccc1-c1ccc(C(O)(CCS(=N)(=O)CC[C@H](N)C(=O)O)C(F)(F)F)cc1 (stereo partly drawn) [Compound 440] | < 1000
48 | 20 to 2000 | N=S(=O)(CC[C@H](N)C(=O)O)CCC(O)(c1ccc(-c2ccc(C(F)(F)F)cc2Cl)cc1)C(F)(F)F (stereo partly drawn) [Compound 441] | < 1000
49 | ≤ 20 | N=S(=O)(CC[C@H](N)C(=O)O)CCC(O)(c1ccc(-c2cccc3ccccc23)cc1)C(F)(F)F (stereo partly drawn) [Compound 444] | < 1000
50 | ≤ 20 | N=S(=O)(CC[C@H](N)C(=O)O)CCC(O)(c1ccc(NC(=O)c2ccsc2)cc1)C(F)(F)F (stereo partly drawn) [Compound 446] | < 1000
51 | ≤ 20 | Cc1cc(-c2ccc(C(O)(CCS(=N)(=O)CC[C@H](N)C(=O)O)C(F)(F)F)cc2)c(C)o1 (stereo partly drawn) [Compound 447] | ≥ 1000
